Data set [1] can be described thus: Lipophilicity, log D of the compound at pH 7.4 by chromatographic method. It is filed as physicochemical. To be noted: buffer.
Data set [2] can be described thus: Intrinsic clearance in human liver microsomes. It is filed as ADME, Microsome. (In general: Liver microsomes are a subcellular fraction often used to study metabolism.)
Data set [3] can be described thus: Drug level in naive rat spleen at 5 mg/kg, iv administered as bolus dose followed by 5 ml/kg/hr iv infusion for 4 hrs. To be noted: read-out: Drug uptake. Format: ADME, organism-based.
The nature of data set [4]: Drug level in naive rat brain at 5 mg/kg, iv administered as bolus dose followed by 5 ml/kg/hr iv infusion for 4 hrs. It is filed as ADME, organism-based. To be noted: read-out: Drug uptake.
The nature of data set [5]: Brain to blood partition coefficient, Kp of the compound in naive rat at 5 mg/kg, iv administered as bolus dose followed by 5 ml/kg/hr iv infusion for 4 hrs. It is filed as ADME, organism-based.
Data set [6] is described as follows: Drug level in naive rat kidney at 5 mg/kg, iv administered as bolus dose followed by 5 ml/kg/hr iv infusion for 4 hrs. Format: ADME, organism-based. To be noted: read-out: Drug uptake.
A short description of data set [7]: Drug level in naive rat blood at 5 mg/kg, iv administered as bolus dose followed by 5 ml/kg/hr iv infusion for 4 hrs. To be noted: read-out: Drug uptake. It is filed as ADME, organism-based.
Data set [8] in a line: Unbound brain-to-plasma concentration ratio in naive rat at 5 mg/kg, iv administered as bolus dose followed by 5 ml/kg/hr iv infusion for 4 hrs. Format: ADME, organism-based. To be noted: read-out: K(p,uu,brain).

In general, chromatographic logD refers to lipophilicity estimated from chromatographic retention. A higher chromatographic logD goes with higher lipophilicity. `O=C(Nc1cccnc1)c1cc(C(F)(F)F)ccc1OCc1ccc(F)cc1` yielded a chromatographic logD in data set [1] of 6.3.

As to `CN1CCN(c2ccc(OCc3ccccc3)c(C(=O)Nc3ccnnc3)c2)CC1`, the CLH in data set [2] came out at 1.6 mL/min/g. Moreover, the chromatographic logD in data set [1] was 3.

As to `C[C@@H]1COCCN1c1ccc(OCc2ccccc2)c(C(=O)Nc2ccnnc2)c1`, the chromatographic logD in data set [1] is 4.5.

Turning to `O=C(Nc1ccnnc1)c1cc(N2CCCCC2)ccc1OCc1ccccc1`, the chromatographic logD in data set [1] was 6.3.

In the case of `O=C(Nc1ccnnc1)c1cc(N2CCCC2)ccc1OCc1ccccc1`, the CLH in data set [2] stood at 9.8 mL/min/g. Also, in data set [1], the chromatographic logD is 6.1.

On to `O=C(Nc1ccnnc1)c1cc(N2CCC(O)CC2)ccc1OCc1ccccc1`, for which the CLH in data set [2] is 0.6 mL/min/g. The compound further had a chromatographic logD in data set [1] of 3.2.

The compound `O=C(Nc1cccc(Cl)c1)c1cc(C(F)(F)F)ccc1OCc1ccccc1` yielded a chromatographic logD in data set [1] of 8.8.

Consider `COCCN1CCN(c2ccc(OCc3ccccc3)c(C(=O)Nc3ccnnc3)c2)CC1`, for which the CLH in data set [2] worked out at 1.3 mL/min/g. Also, the chromatographic logD in data set [1] was 3.8.

`O=C(Nc1ccnnc1)c1cc(N2CC(F)(F)C2)ccc1OCc1ccccc1` showed a CLH in data set [2] of 9.5 mL/min/g. The same compound gave a chromatographic logD in data set [1] of 5.1.

As for `O=C(Nc1cccc(F)c1)c1cc(C(F)(F)F)ccc1OCc1ccc(F)cc1`, in data set [1], the chromatographic logD amounted to 8.2.

By Kp is commonly meant tissue or fluid exposure divided by exposure in the circulation. `O=C(Nc1ccnnc1)c1cc(N2CCOCC2)ccc1OCc1ccccc1` registered a CLH in data set [2] of 2.1 mL/min/g. Moreover, the concentration at 4 h in data set [3] was 1680 ng/g; in data set [4], 1630 ng/g; in data set [6] it was 3970 ng/g; in data set [7], 1130 ng/mL. For the same compound, the chromatographic logD in data set [1] came out at 4.1. The Kp at 4 h in data set [5] worked out at 1.44. For the same compound, the Kp uu at 4 h in data set [8] amounted to 0.51.

Regarding `O=C(Nc1cccnc1)c1cc(C(F)(F)F)ccc1OCc1ccccc1`, the chromatographic logD in data set [1] was determined as 6.3.

In data set [2], `O=C(Nc1ccnnc1)c1cc(N2CC(F)C2)ccc1OCc1ccccc1` returned a CLH of 11.8 mL/min/g. For the same compound, the chromatographic logD in data set [1] came to 4.4.

`CN1CCC(c2ccc(OCc3ccccc3)c(C(=O)Nc3ccnnc3)c2)CC1`: the chromatographic logD in data set [1] was determined as 2.3.

For `N#CC1CCN(c2ccc(OCc3ccccc3)c(C(=O)Nc3ccnnc3)c2)CC1`, the CLH in data set [2] was determined as 5.5 mL/min/g. Moreover, the chromatographic logD in data set [1] turned out to be 4.5.

On to `O=C(Nc1ccnnc1)c1cc(N2C[C@H]3COC[C@H]3C2)ccc1OCc1ccccc1`, for which, in data set [2], the CLH was 4.3 mL/min/g. Further, the chromatographic logD in data set [1] was found to be 4.5.

As to `CN1CC2(C1)CN(c1ccc(OCc3ccccc3)c(C(=O)Nc3ccnnc3)c1)C2`, in data set [1], the chromatographic logD stood at 2.

Regarding `O=C(Nc1ccnnc1)c1cc(N2CCNCC2)ccc1OCc1ccccc1`, in data set [2], the CLH came out at 0.4 mL/min/g. This compound returned a chromatographic logD in data set [1] of 1.9.

As to `COCCN1CCC(c2ccc(OCc3ccccc3)c(C(=O)Nc3ccnnc3)c2)CC1`, the CLH in data set [2] is less than 0.78 mL/min/g. This compound yielded a chromatographic logD in data set [1] of 2.9.

In data set [2], `O=C(Nc1ccnnc1)c1cc(N2CCC(F)CC2)ccc1OCc1ccccc1` returned a CLH of 5.5 mL/min/g. The same compound gave a chromatographic logD in data set [1] of 5.1.

Turning to `N#Cc1cccc(NC(=O)c2cc(C(F)(F)F)ccc2OCc2ccc(F)cc2)c1`, in data set [1], the chromatographic logD is 7.5.

For the compound `O=C(Nc1ccnnc1)c1cc(C(F)(F)F)ccc1OCc1ccccc1`, the chromatographic logD in data set [1] is 5.4.

`O=C(Nc1ccnnc1)c1cc(N2CCC(CO)CC2)ccc1OCc1ccccc1` had a CLH in data set [2] of 1 mL/min/g. The compound further registered a chromatographic logD in data set [1] of 3.5.

Compound `O=C(Nc1cccc(Cl)c1)c1cc(C(F)(F)F)ccc1OCc1ccc(F)cc1` came in with a chromatographic logD in data set [1] of 8.7.

Compound `C[C@@H]1CN(c2ccc(OCc3ccccc3)c(C(=O)Nc3ccnnc3)c2)C[C@H](C)O1` yielded a CLH in data set [2] of 2.2 mL/min/g. Besides, in data set [1], the chromatographic logD was 5.4.

Turning to `CN1CC2(CCN(c3ccc(OCc4ccccc4)c(C(=O)Nc4ccnnc4)c3)CC2)C1`, the chromatographic logD in data set [1] came to 2.2.

These data come from ChEMBL document CHEMBL4371037, “5-Substituted-N-pyridazinylbenzamides as potent and selective LRRK2 inhibitors: Improved brain unbound fraction enables efficacy” (Bioorg Med Chem Lett, 2019).
